This note sets out measurements from patent US20250099485A1, “COMPOSITIONS FOR PROMOTING HAIR GROWTH” (ESTETRA SRL, priority 2021, published 2025).

The subject of data set [1] is human hair follicles (HF). Kind of data set: Hair follicle organ culture: LDH release into the medium. Format: cell-based. The following applies: all tested concentrations (300 nM, 3 μM, 30 μM). The procedure: (§1) 12-44 full-length frontotemporal hair follicles (HF) were obtained from four human female donors >50 years old. Donors were caucasian female subjects […], respectively (Donor 1: 12 temporal anagen HFs; Donor 2: 29; Donor 3: 44; Donor 4: 32). After microdissection from skin as described (Edelkamp et al., Methods Mol Biol, 2020, 2154:105-119; and Langan et al., Exp Dermatol, 2015, December; 24(12):903-1), HFs were placed in adequate culture medium and allowed a 24 h rest period to allow them to recover from the trauma of microdissection. Test substance (either vehicle (0.3% EtOH) or E4 at concentrations of 30 μM, 3 μM or 300 nM) was added to the medium at the end of the 24 h. Total culturing time was 5-7 days depending on the studied parameters and the experimental question. The experimental design for the hair follicle organ culture experiment is depicted in FIG. 12. Longer term culture experiments may be used to analyze the capacity to delay the onset of catagen.
LDH is released from the cytoplasm of damaged cells into the culture medium. Therefore, the cytotoxicity of agents can be estimated based on the activity of LDH present in the culture medium using a colorimetric assay (Cytotoxicity Detection Kit [LDH], Roche) as described (Gherardini et al Int J Cosmet Sci, 2019, April; 41(2):164-182). […]
Background: Release of lactate dehydrogenase indicates damage to the cell membrane.

The subject of data set [2] is human hair follicles (HF). Kind of data set: Hair follicle organ culture: hair shaft elongation ex vivo. Format: cell-based. The following applies: 300 nM, 3 μM, 30 μM, n=4 female donors. The procedure:
as §1, with “Longer term culture experiments may be used to analyze the capacity to delay the onset of catagen.” left out
To determine the HF length, each HF was measured from the end of the bulb connective tissue sheath to the end of the distal outer root sheath (ORS), using a digital light microscope at 50× magnification (VHX 900 Keyence Corporation, Osaka, Japan) and the affiliated software (Edelkamp et al., Methods Mol Biol, 2020, 2154:105-119; and Langan et al., Exp Dermatol, 2015, December; 24(12):903-1). […] Elongation is expressed as millimeters of growth and/or as percentage elongation from the baseline measurement.

Data set [3] relates to human hair follicles (HF). Kind of data set: Hair follicle organ culture: microscopic hair cycle staging. Format: cell-based. The following applies: vs vehicle. The procedure:
as §1
Hair cycle staging and calculation of hair cycle score is indicative of hair cycle progression and anagen-catagen transition (Langan et al., Exp Dermatol, 2015). Hair cycle staging and hair cycle score was performed at the end of the culture. The hair cycle stage of each HF was determined according to several established macroscopic and microscopic parameters (Langan et al Exp Dermatol, 2015). For macroscopic hair cycle stage, bright field images of the living HFs were taken with a digital microscope (Keyence VHX 900). Microscopic hair cycle staging was determined using Ki 67/TUNEL immunohistology and Masson Fontana histochemistry. Hair cycle staging was analyzed by calculating the percentage of HFs in each hair cycle stage. Hair cycle score was determined by giving an arbitrary score to each hair cycle stage as following: anagen: 100, early catagen: 200, mid catagen: 300, late catagen: 400, dystrophic 500, with a higher score being indicative of a higher number of HFs in catagen.

Data set [4] has as its system alkaline phosphatase in dermal papilla (DP). Put plainly: Hair follicle organ culture: alkaline phosphatase activity, DP inductivity. Format: cell-based, human. The settings on record: all tested concentrations, vs vehicle. The procedure:
as §1
Alkaline phosphatase is an indicator of DP inductivity (Yang, J Dermatol Sci, 2010, January; 57(1):2-11). Alkaline phosphatase in situ activity was measured in the DP.

Data set [5] deals with DP fibroblasts. Kind of data set: Hair follicle organ culture: DP fibroblast emigration. The settings on record: vs vehicle. Format: cell-based, human. The method, then:
as §1
The DP resident fibroblasts are subjected to migration in the transition between anagen and catagen phase (Hawkshaw et al., Journ of Invest Dermatol, 2015, 135(8):2129-2132). In catagen onset, DP fibroblasts emigrate to the dermal cup through the DP stalk, whereas at anagen induction, they immigrate back in the DP. Quantifying the number of DP fibroblasts present in the DP stalk and in the DP (Kloepper et al., Exp Dermatol, 2010, March; 19(3):305-12) is therefore a direct readout for anagen induction or catagen promotion. K 15 expression—Stem cells.

On to `C[C@]12CC[C@@H]3c4ccc(O)cc4CC[C@H]3[C@@H]1[C@@H](O)[C@@H](O)[C@@H]2O` [E4, 1,3,5 (10)-estratrien-3,15alpha,16alpha,17beta-tetrol], for which the “HF cytotoxicity (LDH release into the medium)” value in data set [1] is given as “did not induce HF cytotoxicity”. Also, the hair shaft production entry in data set [2] is recorded as “did not modify”. Moreover, the figures for the “prolonged anagen (microscopic hair cycle staging)” value in data set [3] (300 nM), in data set [3] (3 μM) and in data set [3] (30 μM) were “tendentially”, “significantly” and “tendentially”, respectively. Besides, the “alkaline phosphatase activity in DP cells” value in data set [4] is listed as “tendentially increased”. Also, the “density of cells in the inductive dermal cup” value in data set [5] (300 nM, 3 μM, 30 μM) is “no significant impact”. Further, the “total number of cells in the DP stalk” value in data set [5] (300 nM) and in data set [5] (3 μM) was “significantly reduced” each time. Besides, the “density of cells in the DP stalk” value in data set [5] (all concentrations) is recorded as “tendentially decreased”. The “density of cells in the DP” value in data set [5] (all tested concentrations) is “did not strikingly affect”.
